From patent publication US6310037A, “Method of controlling protozoan infections using syringomycin-family lipodepsipeptides” (Utah State University, priority 1999, dated 2001)
Values joined by “and” are separate entries in the source; they are usually repeats but may differ in a detail not shown here. Identical values can stand only once. Like-named read-outs stand apart in the source and are kept apart here. Where a SMILES comes first, the peptide text is derived from it. Bridges are numbered along the chain shown (N, C = ends). [ ]: non-standard residue; d: D form. The star is where a group is joined. Asp(3S-OH) = N[C@H](C(=O)O)[C@H](O)C(=O)O; Thr(4-Cl) = N[C@H](C(=O)O)[C@H](O)CCl; X1 = CCCCCCCCC[C@@H](O)CC(=O)*; dDab = NCC[C@@H](N)C(=O)O; Dab = NCC[C@H](N)C(=O)O; Dhb = C/C=C(\N)C(=O)O

How the values were obtained:
Assay type in all cases: cell-based, C. parvum (bovine isolate)
C. parvum [1] = conditions: MDBK cells; for Infection % (Day 5) / Infection % (Day 2): % of untreated control; for Infection % (Day 2): mean ± SEM
Protocol: (§1) C. parvum (bovine isolate) oocysts used in this study were originally donated by the U.S. Department of Agriculture, Ames, Iowa. The oocysts were isolated from calf manure, preserved in 2.5% potassium dichromate at 4° C., and used within 3 months of purification. Oocysts were decontaminated by suspension in 20% (vol/vol) 1.05% sodium hypochlorite on ice for 20 minutes. Oocysts were then washed three times in Hanks' balanced salt solution ("HBSS") and once in RPMI 1640 (available from Sigma, St. Louis, Mo.). Release of sporozoites was achieved by incubating oocysts in an excystation solution consisting of 0.25% (wt/vol) trypsin (available from Sigma, St. Louis, Mo.) and 0.75% (wt/vol) taurodeoxycholic acid (available from Sigma) in HBSS. The resulting suspension was incubated at 37° C. for 45 minutes and microscopically observed to confirm sporozoite release. Sporozoites were completely separated from intact oocysts and oocyst walls by passage through sterile polycarbonate filters (3 micron pore size, available from Millipore Corp., Bedford, Mass.) twice prior to inoculation of bovine fallopian tube epithelial ("BFTE") cell monolayers.
Coverslips were removed at 5, 24, 48, 72, 96, and 120 hours from the inoculated wells containing monolayers of BFTE cells. The coverslips were washed in RPMI 1640, fixed in 100% methanol for 10 minutes, rinsed twice with 25 mM PBS, and stained with an indirect immunofluorescent assay (IFA) using monoclonal antibody (Mab) 5H11. Mab 5H11 specifically reacts with an antigen present on intermediate stages of C. parvum development. Coverslips were then mounted on glass slides and examined under oil immersion (1000×), using […] microscopy. Parasites were enumerated by counting all developmental stages of C. parvum present in a single scan (67 fields) through the center of each coverslip. The data were statistically compared for significance, using analysis of variance (Fischer's protected least-significant-difference test using a "STATVIEW" statistical analysis application developed by Abacus Concepts, Inc., Berkeley, Calif.).
Madin-Darby bovine kidney (MDBK) epithelial cells were also used to culture C. parvum in this study. Dulbecco's modified Eagle medium (DMEM) with 10% FBS was used for routine passage of MDBK cells purchased from American Type Collection for Culture (Rockville, Md.). Mycoplasma contamination was periodically checked with Hoechst staining (Uphoff et al., 1992). At confluence, MDBK cells were lifted from culture flasks with trypsin, enumerated, and redistributed to assay plates. Ninety-six well cell culture plates were employed to assess cytotoxicity of testing agents or the parasite or both to host cells using neutral red staining or lactic dehydrogenase (LDH) assay.
For enumeration of C. parvum development in culture, 24-well plates were used with a sterile glass coverslip placed in each well. DMEM base was used at and post C. parvum inoculation.
A single concentration of Syr-E at 15 μg/ml was used to treat MDBK cells at pH 7 with C. parvum infection. Group 1 served as an infection control, receiving no Syr-E treatment. Syr-E was administered 1 day prior to parasite inoculation to groups 2, 4, and 5, at the inoculation day to groups 3-5, and 1 day post inoculation to groups 3 and 5, respectively. Following specified administration day(s), supernatants of corresponding wells containing Syr-E were removed and replaced with fresh DMEM base. Cytotoxicity was monitored using lactic dehydrogenase (LDH) assay on day 1 post inoculation. Three coverslips from each group were collected on days 2 and 5 post inoculation, were fixed, and were stained with the specific IFA, as described with reference to Example II.
Therefore, MDBK cells were employed to explore the inhibitory effect of Syr-E on C. parvum development in vitro, as shown in FIG. 3. […]

C. parvum [2] = assay: C. parvum development in BFTE cell culture at pH 6.3; conditions: BFTE cells, pH 6.3, day 2 post inoculation
Protocol: as §1
Primary BFTE cell cultures were prepared from bovine fallopian tubes (FT). […]
The inhibitory effect of Syr-E on C. parvum development was monitored in BFTE cell culture at pH 6.3. […]

C. parvum [3] = conditions: MDBK cells, day 2 post inoculation
[4] = Group 2: Syr-E 15 μg/ml, 1 day, prior to inoculation, pH 7
[5] = Group 3: Syr-E 15 μg/ml, 2 days, at and post inoculation, pH 7
[6] = Group 4: Syr-E 15 μg/ml, 2 days, prior to and at inoculation, pH 7
[7] = Group 5: Syr-E 15 μg/ml, 3 days, prior to, at, and post inoculation, pH 7

C/C=C1\NC(=O)[C@H](Cc2ccccc2)NC(=O)[C@H](CCCNC(=N)N)NC(=O)[C@H](CCN)NC(=O)[C@@H](CCN)NC(=O)[C@@H](CO)NC(=O)[C@@H](NC(=O)C[C@H](O)CCCCCCCCC)COC(=O)[C@H]([C@H](O)CCl)NC(=O)[C@H]([C@H](O)C(=O)O)NC1=O [Syr-E, Syringomycin-E] (X1-S[dS][dDab][Dab]RF[Dhb][Asp(3S-OH)][Thr(4-Cl)]; ester 1-C)
Infection % (Day 5) (C. parvum [1]; [4]): 22% and 21.9% | Infection % (Day 2) (C. parvum [1]; [4]): 13% and 12.9 ± 2.7% | Infection % (Day 5) (C. parvum [1]; [5]): 11.7% | Infection % (Day 2) (C. parvum [1]; [5]): 10.2 ± 2.1% | Infection % (Day 5) (C. parvum [1]; [6]): 1.4% | Infection % (Day 2) (C. parvum [1]; [6]): 1.1 ± 0.2% | Infection % (Day 5) (C. parvum [1]; [7]): 1.0% | Infection % (Day 2) (C. parvum [1]; [7]): 0.9 ± 0.1% | infection percentage of the untreated control (C. parvum [1]; Syr-E 15 μg/ml, day 5 post inoculation): 14.7% | infection percentage (C. parvum [1]; Syr-E 15 μg/ml, treatment prior to and at the inoculation, pH 7, day not given): approximately 1% | infection percentage vs lower Syr-E concentrations (0.5 to 3.0 μg/ml) (C. parvum [2]; Syr-E 9.0 μg/ml): further reduced the infection percentage significantly (P<0.01) | infection percentage vs non-treated controls (C. parvum [2]; Syr-E 0.5, 1.0, 3.0 and 9.0 μg/ml): significantly (at least P<0.01) reduced the infection percentage | infection percentage compared to the untreated control (C. parvum [3]; Syr-E 5.0 μg/ml): significantly (P<0.05) reduced the infection percentage | inhibition of parasite growth and development (C. parvum [3]; Syr-E 20 μg/ml): 99.5%
